According to PubChem BioAssay (NCI):
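Assay format: 96-well plates, 48-hour exposure. Here, GI50 denotes the concentration required for 50% inhibition of growth. TGI: concentration producing complete growth inhibition.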

Key:
Assay in all cases: NCI tumour cell line growth inhibition, 48 h
SR leukemia = tested on: SR leukemia
DU-145 prostate = tested on: DU-145 prostate
LOX IMVI melanoma = tested on: LOX IMVI melanoma
COLO 205 colon = tested on: COLO 205 colon
CCRF-CEM leukemia = tested on: CCRF-CEM leukemia
SK-MEL-2 melanoma = tested on: SK-MEL-2 melanoma
BT-549 breast = tested on: BT-549 breast
HT29 colon = tested on: HT29 colon
MDA-MB-231 breast = tested on: MDA-MB-231 breast
HCT-116 colon = tested on: HCT-116 colon
NCI-H226 lung = tested on: NCI-H226 lung
SK-MEL-28 melanoma = tested on: SK-MEL-28 melanoma
U251 CNS = tested on: U251 CNS
CAKI-1 renal = tested on: CAKI-1 renal
OVCAR-5 ovarian = tested on: OVCAR-5 ovarian
T-47D breast = tested on: T-47D breast
HCC-2998 colon = tested on: HCC-2998 colon
OVCAR-3 ovarian = tested on: OVCAR-3 ovarian
UO-31 renal = tested on: UO-31 renal
MDA-MB-435 = tested on: MDA-MB-435
A498 renal = tested on: A498 renal
NCI-H23 lung = tested on: NCI-H23 lung
SF-295 CNS = tested on: SF-295 CNS
SK-OV-3 ovarian = tested on: SK-OV-3 ovarian
NCI-H460 lung = tested on: NCI-H460 lung
SW-620 colon = tested on: SW-620 colon
IGROV1 ovarian = tested on: IGROV1 ovarian
NCI/ADR-RES ovarian = tested on: NCI/ADR-RES ovarian
MCF7 breast = tested on: MCF7 breast
SF-539 CNS = tested on: SF-539 CNS
KM12 colon = tested on: KM12 colon
K-562 leukemia = tested on: K-562 leukemia
UACC-62 melanoma = tested on: UACC-62 melanoma
ACHN renal = tested on: ACHN renal
NCI-H522 lung = tested on: NCI-H522 lung
HS 578T breast = tested on: HS 578T breast
OVCAR-8 ovarian = tested on: OVCAR-8 ovarian
TK-10 renal = tested on: TK-10 renal
EKVX NSCLC = tested on: EKVX NSCLC
SNB-19 CNS = tested on: SNB-19 CNS
786-0 renal = tested on: 786-0 renal
PC-3 prostate = tested on: PC-3 prostate
RPMI-8226 leukemia = tested on: RPMI-8226 leukemia
UACC-257 melanoma = tested on: UACC-257 melanoma
RXF 393 renal = tested on: RXF 393 renal
MOLT-4 leukemia = tested on: MOLT-4 leukemia
HCT-15 colon = tested on: HCT-15 colon
MALME-3M melanoma = tested on: MALME-3M melanoma
SNB-75 CNS = tested on: SNB-75 CNS
A549 NSCLC = tested on: A549 NSCLC
M14 melanoma = tested on: M14 melanoma
SF-268 CNS = tested on: SF-268 CNS
OVCAR-4 ovarian = tested on: OVCAR-4 ovarian
SN12C renal = tested on: SN12C renal
SK-MEL-5 melanoma = tested on: SK-MEL-5 melanoma
HOP-62 NSCLC = tested on: HOP-62 NSCLC

With `O=[N+]([O-])c1cc2c(c([N+](=O)[O-])c1)Nc1ccccc1O2` the GI50 (SR leukemia) was 5.46 µM, the TGI (SR leukemia) was > 100 µM and the GI50 (DU-145 prostate) was 7.32 µM. For the same compound, the TGI (DU-145 prostate) was > 100 µM, the GI50 (LOX IMVI melanoma) was 4.67 µM and the TGI (LOX IMVI melanoma) was > 100 µM. For the same compound, the GI50 (COLO 205 colon) was 10.5 µM, the TGI (COLO 205 colon) was 27.8 µM and the GI50 (CCRF-CEM leukemia) was 13.2 µM. For the same compound, the TGI (CCRF-CEM leukemia) was > 100 µM, the GI50 (SK-MEL-2 melanoma) was 7.48 µM and the TGI (SK-MEL-2 melanoma) was 40.3 µM. The GI50 (BT-549 breast) was 7.58 µM, the TGI (BT-549 breast) was 60.8 µM and the GI50 (HT29 colon) was 6.41 µM. The TGI (HT29 colon) was 66.8 µM, the GI50 (MDA-MB-231 breast) was 6.38 µM and the TGI (MDA-MB-231 breast) was 30.7 µM. For the same compound, the GI50 (HCT-116 colon) was 4.49 µM, the TGI (HCT-116 colon) was 63 µM and the GI50 (NCI-H226 lung) was 5.97 µM. For the same compound, the TGI (NCI-H226 lung) was > 100 µM, the GI50 (SK-MEL-28 melanoma) was 19.5 µM and the TGI (SK-MEL-28 melanoma) was > 100 µM. It also gave a GI50 (U251 CNS) of 3.32 µM, a TGI (U251 CNS) of 22.6 µM and a GI50 (CAKI-1 renal) of 5.36 µM. For the same compound, the TGI (CAKI-1 renal) was 26.9 µM, the GI50 (OVCAR-5 ovarian) was 14.9 µM and the TGI (OVCAR-5 ovarian) was 62.2 µM. It also gave a GI50 (T-47D breast) of 2.79 µM, a TGI (T-47D breast) of 10.2 µM and a GI50 (HCC-2998 colon) of 7.75 µM. For the same compound, the TGI (HCC-2998 colon) was > 100 µM, the GI50 (OVCAR-3 ovarian) was 3.69 µM and the TGI (OVCAR-3 ovarian) was > 100 µM. It also gave a GI50 (UO-31 renal) of 2.76 µM, a TGI (UO-31 renal) of 36.5 µM and a GI50 (MDA-MB-435) of 8 µM. For the same compound, the TGI (MDA-MB-435) was > 100 µM, the GI50 (A498 renal) was 1.73 µM and the TGI (A498 renal) was 9.34 µM. For the same compound, the GI50 (NCI-H23 lung) was 2.78 µM, the TGI (NCI-H23 lung) was 87.2 µM and the GI50 (SF-295 CNS) was 4.7 µM. The TGI (SF-295 CNS) was 29.1 µM, the GI50 (SK-OV-3 ovarian) was 15.2 µM and the TGI (SK-OV-3 ovarian) was 58.6 µM. It also gave a GI50 (NCI-H460 lung) of 4.62 µM, a TGI (NCI-H460 lung) of 83.1 µM and a GI50 (SW-620 colon) of 10.7 µM. The TGI (SW-620 colon) was > 100 µM, the GI50 (IGROV1 ovarian) was 7.58 µM and the TGI (IGROV1 ovarian) was > 100 µM. For the same compound, the GI50 (NCI/ADR-RES ovarian) was 3.41 µM, the TGI (NCI/ADR-RES ovarian) was 55.4 µM and the GI50 (MCF7 breast) was 4.96 µM. For the same compound, the TGI (MCF7 breast) was > 100 µM, the GI50 (SF-539 CNS) was 13.3 µM and the TGI (SF-539 CNS) was 74.6 µM. The GI50 (KM12 colon) was 6.68 µM, the TGI (KM12 colon) was > 100 µM and the GI50 (K-562 leukemia) was 4.64 µM. For the same compound, the TGI (K-562 leukemia) was > 100 µM, the GI50 (UACC-62 melanoma) was 5.11 µM and the TGI (UACC-62 melanoma) was > 100 µM. The GI50 (ACHN renal) was 6.97 µM, the TGI (ACHN renal) was 76.2 µM and the GI50 (NCI-H522 lung) was 2.78 µM. For the same compound, the TGI (NCI-H522 lung) was 31.4 µM, the GI50 (HS 578T breast) was 7.22 µM and the TGI (HS 578T breast) was > 100 µM. For the same compound, the GI50 (OVCAR-8 ovarian) was 10 µM, the TGI (OVCAR-8 ovarian) was > 100 µM and the GI50 (TK-10 renal) was 9.98 µM. It also gave a TGI (TK-10 renal) of 46.7 µM, a GI50 (EKVX NSCLC) of 4.4 µM and a TGI (EKVX NSCLC) of 51.7 µM. The GI50 (SNB-19 CNS) was 6.33 µM, the TGI (SNB-19 CNS) was > 100 µM and the GI50 (786-0 renal) was 5.81 µM. It also gave a TGI (786-0 renal) of 39.1 µM, a GI50 (PC-3 prostate) of 4.12 µM and a TGI (PC-3 prostate) of 34 µM. It also gave a GI50 (RPMI-8226 leukemia) of 2.96 µM, a TGI (RPMI-8226 leukemia) of 8.2 µM and a GI50 (UACC-257 melanoma) of 3.74 µM. For the same compound, the TGI (UACC-257 melanoma) was 39.1 µM, the GI50 (RXF 393 renal) was 7.35 µM and the TGI (RXF 393 renal) was 46.3 µM. The GI50 (MOLT-4 leukemia) was 6.22 µM, the TGI (MOLT-4 leukemia) was > 100 µM and the GI50 (HCT-15 colon) was 5.49 µM. For the same compound, the TGI (HCT-15 colon) was > 100 µM, the GI50 (MALME-3M melanoma) was 4.08 µM and the TGI (MALME-3M melanoma) was > 100 µM. The GI50 (SNB-75 CNS) was 29.8 µM, the TGI (SNB-75 CNS) was > 100 µM and the GI50 (A549 NSCLC) was 5.51 µM. The TGI (A549 NSCLC) was 60.4 µM, the GI50 (M14 melanoma) was 11.5 µM and the TGI (M14 melanoma) was > 100 µM. For the same compound, the GI50 (SF-268 CNS) was 6.53 µM, the TGI (SF-268 CNS) was > 100 µM and the GI50 (OVCAR-4 ovarian) was 5.99 µM. For the same compound, the TGI (OVCAR-4 ovarian) was 68.3 µM, the GI50 (SN12C renal) was 6 µM and the TGI (SN12C renal) was > 100 µM. The GI50 (SK-MEL-5 melanoma) was 3.81 µM, the TGI (SK-MEL-5 melanoma) was 21.6 µM and the GI50 (HOP-62 NSCLC) was 16.3 µM. It also gave a TGI (HOP-62 NSCLC) of 44.4 µM.
